# Data reported in ChEMBL document CHEMBL3217615, “Novel 3,5-bis(arylidiene)-4-piperidone based monocarbonyl analogs of curcumin: anticancer activity evaluation and mode of action study” (2014).
# How the values were obtained:
# Format in all cases: functional
# COLO 205 [1] = test: Induction of apoptosis in human COLO205 cells assessed as DNA fragmentation at 10 uM
# T47D = test: Growth inhibition of human T47D cells after 48 hrs by sulforhodamine B assay
# [2] = Growth inhibition of human OVCAR3 cells assessed as cell growth at 10^-6 M after 48 hrs by sulforhodamine B assay; conditions: OVCAR-3, 48 h, read-out: Activity
# HT-29 = test: Growth inhibition of human HT-29 cells assessed as cell growth at 10^-6 M after 48 hrs by sulforhodamine B assay; conditions: HT-29, 48 h, read-out: Activity
# [3] = Growth inhibition of human HOP92 cells assessed as cell growth at 10^-6 M after 48 hrs by sulforhodamine B assay; conditions: HOP-92, 48 h, read-out: Activity
# HOP-62 [4] = test: Growth inhibition of human HOP62 cells assessed as cell growth at 10^-6 M after 48 hrs by sulforhodamine B assay; conditions: HOP-62, 48 h, read-out: Activity
# A549 = test: Growth inhibition of human A549/ATCC cells assessed as cell growth at 10^-6 M after 48 hrs by sulforhodamine B assay; conditions: A549, 48 h, read-out: Activity
# 786-0 [5] = test: Growth inhibition of human 786-0 cells assessed as cell growth at 10^-7 M after 48 hrs by sulforhodamine B assay; conditions: 786-0, 48 h, read-out: Activity
# [6] = Growth inhibition of human OVCAR4 cells assessed as cell growth at 10^-7 M after 48 hrs by sulforhodamine B assay; conditions: OVCAR-4, 48 h, read-out: Activity
# [7] = Growth inhibition of human SF295 cells assessed as cell growth at 10^-5 M after 48 hrs by sulforhodamine B assay; conditions: SF-295, 48 h, read-out: Activity
# [8] = Growth inhibition of human UO31 cells assessed as cell growth at 10^-6 M after 48 hrs by sulforhodamine B assay; conditions: UO-31, 48 h, read-out: Activity
# 786-0 [9] = test: Growth inhibition of human 786-0 cells assessed as cell growth at 10^-6 M after 48 hrs by sulforhodamine B assay; conditions: 786-0, 48 h, read-out: Activity
# SK-OV-3 = test: Growth inhibition of human SKOV3 cells assessed as cell growth at 10^-6 M after 48 hrs by sulforhodamine B assay; conditions: SK-OV-3, 48 h, read-out: Activity
# [10] = Growth inhibition of human OVCAR8 cells assessed as cell growth at 10^-4 M after 48 hrs by sulforhodamine B assay; conditions: OVCAR-8, 48 h, read-out: Activity
# [11] = Growth inhibition of human OVCAR3 cells assessed as cell growth at 10^-4 M after 48 hrs by sulforhodamine B assay; conditions: OVCAR-3, 48 h, read-out: Activity
# NCI-H522 = test: Growth inhibition of human NCI-H522 cells assessed as cell growth at 10^-4 M after 48 hrs by sulforhodamine B assay; conditions: NCI-H522, 48 h, read-out: Activity
# [12] = Growth inhibition of human MOLT4 cells assessed as cell growth at 10^-4 M after 48 hrs by sulforhodamine B assay; conditions: MOLT-4, 48 h, read-out: Activity
# COLO 205 [13] = test: Induction of apoptosis in human COLO205 cells at 10 uM after 24 hrs by Annexin V/propidium iodide staining-based fluorescence microscopy
# NCI-H322M = test: Growth inhibition of human NCI-H322M cells assessed as cell growth at 10^-8 M after 48 hrs by sulforhodamine B assay
# HOP-62 [14] = test: Growth inhibition of human HOP62 cells assessed as cell growth at 10^-8 M after 48 hrs by sulforhodamine B assay; conditions: HOP-62, 48 h
# PC-3 = test: Growth inhibition of human PC3 cells after 48 hrs by sulforhodamine B assay; conditions: PC-3, 48 h
# CAKI-1 = test: Growth inhibition of human CAKI-1 cells after 48 hrs by sulforhodamine B assay; conditions: CAKI-1, 48 h
# 786-0 [15] = test: Growth inhibition of human 786-0 cells after 48 hrs by sulforhodamine B assay; conditions: 786-0, 48 h
# [16] = Growth inhibition of human OVCAR5 cells after 48 hrs by sulforhodamine B assay; conditions: OVCAR-5, 48 h
# IGROV-1 [17] = test: Growth inhibition of human IGROV1 cells after 48 hrs by sulforhodamine B assay; conditions: IGROV-1, 48 h
# [18] = Growth inhibition of human UACC257 cells after 48 hrs by sulforhodamine B assay; conditions: UACC-257, 48 h
# U-251 = test: Growth inhibition of human U251 cells after 48 hrs by sulforhodamine B assay; conditions: U-251, 48 h
# [19] = Growth inhibition of human UO31 cells assessed as cell growth at 10^-4 M after 48 hrs by sulforhodamine B assay; conditions: UO-31, 48 h, read-out: Activity
# IGROV-1 [20] = test: Growth inhibition of human IGROV1 cells assessed as cell growth at 10^-7 M after 48 hrs by sulforhodamine B assay; conditions: IGROV-1, 48 h, read-out: Activity
# M14 = test: Growth inhibition of human M14 cells assessed as cell growth at 10^-7 M after 48 hrs by sulforhodamine B assay; conditions: M14, 48 h, read-out: Activity
# Malme-3M = test: Growth inhibition of human MALME-3M cells assessed as cell growth at 10^-7 M after 48 hrs by sulforhodamine B assay; conditions: read-out: Activity
# SR = test: Growth inhibition of human SR cells assessed as cell growth at 10^-7 M after 48 hrs by sulforhodamine B assay; conditions: read-out: Activity
# HL-60(TB) = test: Growth inhibition of human HL-60(TB) cells assessed as cell growth at 10^-7 M after 48 hrs by sulforhodamine B assay; conditions: HL-60, 48 h, read-out: Activity
# [21] = Growth inhibition of human OVCAR8 cells assessed as cell growth at 10^-8 M after 48 hrs by sulforhodamine B assay; conditions: OVCAR-8, 48 h
# [22] = Growth inhibition of human OVCAR4 cells assessed as cell growth at 10^-8 M after 48 hrs by sulforhodamine B assay; conditions: OVCAR-4, 48 h
# [23] = read-out: LC50 (the source's name)
compound,measurement,setting,value
O=C1/C(=C/c2ccc(Cl)cc2Cl)CN(S(=O)(=O)c2ccccc2)C/C1=C\c1ccc(Cl)cc1Cl,Activity,COLO 205 [1],45%
same,GI50,T47D,1.28 µM
same,TGI,T47D,100 µM
same,CC50,T47D; [23],> 100 µM
same,growth at 1 µM,[2],-10%
same,growth at 1 µM,HT-29,-8%
same,growth at 1 µM,[3],72%
same,growth at 1 µM,HOP-62 [4],5%
same,growth at 1 µM,A549,-5%
same,growth at 0.1 µM,786-0 [5],104%
same,growth at 0.1 µM,[6],82%
same,growth at 10 µM,[7],-3%
same,growth at 1 µM,[8],-22%
same,growth at 1 µM,786-0 [9],-37%
same,growth at 1 µM,SK-OV-3,108%
same,growth at 100 µM,[10],-14%
same,growth at 100 µM,[11],-65%
same,growth at 100 µM,NCI-H522,-56%
same,growth at 100 µM,[12],-11%
same,Activity,COLO 205 [13],66%
same,GI50,NCI-H322M,0.676 µM
same,LC50,NCI-H322M,> 100 µM
same,growth at 0.01 µM,NCI-H322M; read-out: Activity,107%
same,TGI,NCI-H322M; read-out: pTGI (converted),3.55 µM
same,GI50,HOP-62 [14],0.389 µM
same,LC50 (concentration killing 50% of cells),HOP-62 [14],> 100 µM
same,growth at 0.01 µM,HOP-62 [14]; read-out: Activity,103%
same,TGI,HOP-62 [14]; read-out: pTGI (converted),> 100 µM
same,GI50,PC-3,0.291 µM
same,TGI,PC-3,1.03 µM
same,CC50,PC-3; [23],> 100 µM
same,GI50,CAKI-1,1.84 µM
same,TGI,CAKI-1,5.75 µM
same,CC50,CAKI-1; [23],> 100 µM
same,GI50,786-0 [15],0.241 µM
same,TGI,786-0 [15],0.544 µM
same,CC50,786-0 [15]; [23],1.71 µM
same,GI50,[16],2.13 µM
same,TGI,[16],7.43 µM
same,CC50,[16]; [23],> 100 µM
same,GI50,IGROV-1 [17],0.317 µM
same,TGI,IGROV-1 [17],0.649 µM
same,CC50,IGROV-1 [17]; [23],> 100 µM
same,GI50,[18],4.08 µM
same,TGI,[18],> 100 µM
same,CC50,[18]; [23],> 100 µM
same,GI50,U-251,0.173 µM
same,TGI,U-251,0.373 µM
same,CC50,U-251; [23],0.805 µM
same,growth at 100 µM,[19],-60%
same,growth at 0.1 µM,IGROV-1 [20],130%
same,growth at 0.1 µM,M14,104%
same,growth at 0.1 µM,Malme-3M,129%
same,growth at 0.1 µM,SR,70%
same,growth at 0.1 µM,HL-60(TB),92%
same,GI50,[21],0.229 µM
same,LC50,[21],> 100 µM
same,growth at 0.01 µM,[21]; read-out: Activity,99%
same,TGI,[21]; read-out: pTGI (converted),0.955 µM
same,GI50,[22],0.282 µM
same,LC50,[22],> 100 µM
same,growth at 0.01 µM,[22]; read-out: Activity,102%
same,TGI,[22]; read-out: pTGI,> 100 µM
